# In patent publication US8623649B2, “Method of selecting a cardiomyoctye using intracellular mitochondria as an indicator” (Daiichi Sankyo Company, Limited, priority 2004, dated 2014):
# Entries after “also recorded” stand apart in the source; their conditions may differ.
# Key:
# Assay type in all cases: cell-based
# [1] = system: cell mixture derived from a whole heart extracted from neonatal rat heart; assay: Labeling of neonatal rat whole-heart cell mixture with mitochondrial indicator, FACS sorting, anti-Sarcomeric α-Actinin immunostaining; details: for percentage of cardiomyocyte in cells with relatively higher fluorescent intensity (P5 area): cultured 24 hours
# Method: (§1) Neonatal rats 1-3 days after birth were sacrificed by cervical dislocation after ether anesthesia, after which the heart of each rats was isolated. Cardiac ventricle isolated from the heart was treated with 0.025% (w/v) of collagenase (available from Warthington Biomedical Corporation) in serum free D-MEM (High-glucose) medium (available from Invitrogen). By digesting the cardiac ventricle using collagenase, cells were dispersed in the medium to prepare a cell mixture derived from a whole heart.
# (§2) Subsequently, the culture medium was replaced by D-MEM (High-glucose) medium (available from Invitrogen) supplemented with 10% (final concentration) of fetal bovine serum (available from JRH Bioscience). Thus prepared cultured cells were incubated in the culture medium containing 100 nM (final concentration) of a mitochondrial indicator, M7512 (available from Molecular Probe) for 10 minutes at 37° C. After incubation, the cells were washed 4 times using the culture medium and further cultured for 24 hours at 37° C.
# The cell mixture derived from a whole heart was prepared in accordance with the method described in Example 1 and labeled with M7512. The labeled cell mixture derived from a whole heart was subjected to analysis of distribution of the cells of the cell mixture derived from a whole heart using FACS (registered trademark) (BD, Franklin Lakes, N.J. USA).
# In this example, cells of P5 area were sorted as a cardiomyocyte and cells of P6 area were sorted as a non-cardiomyocyte, each then being separately subjected to the cell culture.
# (§3) Next, the fixed cells were labeled with a cardiomyocyte marker, mouse anti-Sarcomeric α-Actinin Antibody (available from SIGMA), which were visualized using green fluorescent material-conjugated goat anti-mouse antibody (available from Molecular Probes).
# In this example, the cell mixture derived from a whole heart extracted from a neonatal rat heart, which was labeled with a mitochondrial indicator, was prepared by the same method as that described in Example 1, except that T3168 (available from Molecular Probe) was used as a mitochondrial indicator.
# Thus selected cells were cultured followed by paraformaldehyde fixation by the same method as that described in Example 5, which were labeled with mouse anti-Sarcomeric α-Actinin Antibody (available from SIGMA).
# Neonatal rat heart was treated with 0.025% (w/v) of collagenase (available from SIGMA) and trypsin (available from GIBCO) to collect a cell population. Cells dispersed in the culture medium were exposed to 1 μM (final concentration) of a mitochondrial indicator, T668 (available form Molecular Probe) for 15 minutes at 37° C., washed 3 times, and immediately analyzed by FACS.
# Neonatal rat heart was treated with collagenase and trypsin to collect a cell population. Cells dispersed in the culture medium were exposed to 1 μM (final concentration) of a mitochondrial indicator S7563 for 15 minutes at 37° C., washed 3 times, and immediately analyzed by FACS.
# [2] = system: cell mixture derived from a mouse embryonic stem cell; assay: Fluorescent microscope observation of labeled mouse embryonic stem cell derived cell mass; details: labeled as Example 1, adhesion culture 5 days after removal of M7512
# Method: Fourteen days after differentiation and induction, a cell mass containing an autonomously pulsating cardiomyocyte was confirmed to be formed in the culture vessel, to which 10^−8 M of all trans-retinoic acid was added for further enhancing the degree of differentiation/induction of the cardiomyocyte.
# At 21st day from differentiation/induction, a cell mass containing an autonomously pulsating cardiomyocyte was dispersed into separate cells to form a cell mixture. Thus prepared cell mixture was labeled with M7512 under the same condition as that of Example 1 and cultured under the condition of the adhesion culture for further 5 days after removal of M7512. After further culture for 5 days, a cell mass containing an autonomously pulsating cardiomyocyte prepared under the culture condition was observed using a fluorescent microscope.
# [3] = system: cell mixture derived from a whole heart extracted from neonatal rat heart; assay: Fluorescent microscope observation of labeled neonatal rat whole-heart cell mixture; details: 100 nM, 10 minutes at 37° C., cultured 24 hours
# Method: as §1, §2
# [4] = system: cell mixture derived from a mouse embryonic stem cell; assay: Labeling of mouse embryonic stem cell derived cell mixture with mitochondrial indicator, FACS sorting, Actinin immunostaining
# From the text: as §3
# [5] = system: rat cells derived from a whole heart; assay: Staining of rat whole-heart cells from 11th day post conception to 8 days after birth and FACS analysis; details: 11th day post conception to 8 days after birth; 1 μM, 15 minutes at 37° C.
# Method: Rat heart obtained at 11th day post conception to 8 days after birth was treated with collagenase and trypsin to collect a cell population. Cells dispersed in the culture medium were exposed to 1 μM (final concentration) of a mitochondrial indicator T668 for 15 minutes at 37° C., washed 3 times, and immediately analyzed by FACS. In consequence, the cell population was isolated by T668 fluorescent intensity. […] Therefore, it is shown that it is possible to presume the maturity of the cardiomyocyte by the method provided by the present specification.
# [6] = system: fetal rat cells derived from a whole heart; assay: Staining of fetal rat whole-heart cells (13th day post conception), FACS sorting, anti-Actinin immunostaining; details: fetal rat heart of 13th day post conception; 1 μM, 15 minutes at 37° C.
# Method: Fetal rat heart of 13th day post conception was treated with collagenase and trypsin to collect a cell population. Cells dispersed in the culture medium were exposed to 1 μM (final concentration) of a mitochondrial indicator T668 for 15 minutes at 37° C., washed 3 times, and immediately subjected to FACS analysis. The cells were separated into 3 groups of cell population based on T668 fluorescent intensity (FIG. 9-1).
# Then, the cardiomyocyte was identified by immunostaining of the cultured cell using anti-Actinin antibody.
# [7] = system: whole fetal cells; assay: Staining of whole fetal cells (fetal rat of 9th day post conception), FACS sorting, Actinin immunostaining; details: 1 μM, 15 minutes at 37° C.
# Method: Fetal rat of 9th day post conception was treated with collagenase and trypsin to collect cell population. Cells dispersed in the culture medium were exposed to 1 μM (final concentration) of a mitochondrial indicator T668 for 15 minutes at 37° C., washed 3 times, and immediately subjected to FACS analysis. One single cell population was mainly observed as a cell population based on the fluorescent intensity. On the other hand, in the high fluorescent intensity area in which the cardiomyocyte was predicted to be detected based on the analysis of a whole heart sample from the later development stage, a definite cell population could not be found (FIG. 10-1).
# The cells were cultured and immunostained with an antibody against a cardiomyocyte marker, Actinin. […] Since the cardiomyocyte is extremely immature in the fetus of 9th day post conception (early embryo), it is considered in the art that quantitative alteration of the mitochondria has not completely occurred.
# [8] = system: neonatal rat cells derived from a whole heart; assay: Double staining with T668 and M7514, comparative FACS analysis of transmembrane potential per mitochondria
# Method: Cell population was collected using the same materials and the same method as those described in Example 8. Thus collected cardiomyocytes were stained with a mitochondrial indicator, M7514 (available from Molecular Probe), independent of the transmembrane potential which can specifically stain mitochondria and with a mitochondrial indicator T668 dependent on the transmembrane potential which can also specifically stain mitochondria. The cells were analyzed using FACS immediately after the staining. It is possible to separately detect the fluorescence of T668 and that of M7514 since the wavelength of the fluorescence from T668 is different from that from M7514. In this example, three groups of cell population were detected based on T668 fluorescence as an indicator.
# Next, each cell population is separated based on the ratio of fluorescent intensity derived from T668 divided by fluorescent intensity derived from M7514. […]
# [9] = 100 nM indicator, 10 minutes at 37° C., FACS sorted, anti-Sarcomeric α-Actinin, 30% before selection
# [10] = 1 μM indicator, 15 minutes at 37° C., immediate FACS, anti-Actinin immunostaining
# [11] = 1 μM, 15 minutes at 37° C., immediate FACS, Actinin immunostaining
compound,measurement,setting,value
"ClCc1ccc(C2=c3cc4c5c(c3Oc3c2cc2c6c3CCCN6CCC2)CCC[N+]=5CCC4)cc1.[Cl-] [M7512, 1H,5H,11H,15H-Xantheno[2,3,4-ij:5,6,7-i′j′]diquinolizin-18-ium, 9-[4-(chloromethyl)phenyl]-2,3,6,7,12,13,16,17-octahydro-, chloride]",percentage of cardiomyocyte in cells with relatively higher fluorescent intensity (P5 area),[1]; [9],more than 99%
same,percentage of cardiomyocyte in cells with relatively lower fluorescent intensity (P6 area),[1]; [9],approximately equal to the percentage of the cardiomyocyte before the selection
same,labeling of autonomously pulsating cardiomyocytes compared with other types of cells,[2],strongly labeled
same,indicator-based fluorescence under fluorescent microscope,[3],clearly observed in a cardiomyocyte
same,percentage of cardiomyocyte in cells collected from P2 area (relatively higher fluorescent intensity),"[4]; M7512 labeling as Example 1, 5 days culture after removal, 10% before selection",more than 80%
COC(=O)c1ccccc1-c1c2ccc(=N)cc-2oc2cc(N)ccc12.Cl [R302],composition of cell population with the highest fluorescent intensity,[1]; [10],cells of interest can also be obtained
"CCN1C(=CC=Cc2n(CC)c3cc(Cl)c(Cl)cc3[n+]2CC)N(CC)c2cc(Cl)c(Cl)cc21 [T3168, 1H-Benzimidazolium, 5,6-dichloro-2-[3-(5,6-di-chloro-1,3-diethyl-1,3-dihydro-2H-benzimidazol-2-ylidene)-1-propenyl]-1,3-diethyl-, iodide, (E)-]",percentage of cardiomyocyte in cells with relatively higher fluorescent intensity (P5 area),[1]; [9],more than 95%
"COC(=O)c1ccccc1-c1c2ccc(N(C)C)cc2[o+]c2cc(N(C)C)ccc12 [T668, Xanthylium, 3,6-bis(dimethylamino)-9-(2-(methoxycarbonyl)phenyl)-, perchlorate]",high fluorescent cardiomyocyte population as the development stage progressed,[5],increased in number
same,composition of cell population with the highest fluorescent intensity,[1]; [10],almost all cells of the cell population with the highest intensity of T668 fluorescent signal consist of a cardiomyocyte
same,composition of cell population with the middle fluorescent intensity,[1]; [10],almost all cells of the cell population with the middle fluorescent intensity consist of a non-cardiomyocyte
same,composition of cell population with the highest fluorescent intensity,[6],almost all cells of the cell population with the highest intensity of T668 consist of a cardiomyocyte; also recorded: almost all cells of the cell population with the highest intensity of T668 fluorescent signal consist of the cardiomyocyte
same,composition of cell population with the middle fluorescent intensity,[6],almost all cells of the cell population with the middle fluorescent population consist of a non-cardiomyocyte; also recorded: almost all cells of the cell population with the middle fluorescent intensity consist of the non-cardiomyocyte
same,percentage of cardiomyocyte in high fluorescent cell population,[7],more than 95%
same,composition of main cell population,[4]; [11],Almost all of the cells collected consist of a non-cardiomyocyte
same,percentage of cardiomyocyte in high fluorescent cell population,[4]; [11],More than 98%
same,"cells with ratio of T668 fluorescent intensity to M7514 fluorescent intensity of more than 150%, share of total cells",[8]; cell population identified as a cardiomyocyte based on T668 signal,90%
same,"cells with ratio of T668 fluorescent intensity to M7514 fluorescent intensity of more than 150%, share of total cells",[8]; cell population identified as a non-cardiomyocyte based on T668 signal,13%
